Measured values published in patent publication EP0332946B1, “The dipeptide L-pyroglutamyl-L-cysteine, having a high anti-cataractogenic activity, and pharmaceutical compositions containing the same” (S.I.F.I. Società Industria Farmaceutica Italiana S.p.A., priority 1988, dated 1993).
Like-named read-outs stand apart in the source and are kept apart here. Non-standard residues stand in square brackets, D forms with d. Residues, ends and D or L forms follow the SMILES beside them. pGlu = O=C1CC[C@@H](C(=O)O)N1

Assays:
male New-Zealand rabbits [1] = assay: Toxicity (systemic tolerability) after intraperitoneal injection; type: in vivo
Experimental: The systemic tolerability of PGC has been studied also after acute administration by means of intraperitoneal injection.
10 rabbits have received the substance (400 mg/kg) injected intraperitoneally.
24 hours after the administration of the product, the following examination have been carried out on urine and blood: • blood cell (red and white) count • determination of glycemia and acotemia; • evaluation of SGOT and SGPT transaminases

[2] = test system: Female albino Sprague-Dowely rats; assay: Cataract due to hypergalactosemic diet (in vivo experimental cataract model, slit lamp evaluation); conditions: rats on 50% galactose diet, 20 days; PGC 10% in buffer, one drop twice a day into the conjunctive sac
Source text: Female albino Sprague-Dowely rats having an average weight of 70 g have been used. Said rats have been fed a diet consisting of 50% galactose and the remaining 50% standard rat food during a 20 days period. The animals have been divided in two groups: the first animal group has been administered PGC (10% in buffer) by instilling one drop twice a day into the conjuctive sac, both sides; the second group, consisting of control animals, has been administered buffer only.
The conditions of the various eye sections : conjunctiva, cornea, interior chamber, lens and vitreous humor have been evaluated at the slit lamp. The examination has been carried out before the beginning of the treatment and then on the 5th, 10th, 15th and 20th day.

rat lenses = assay: Experimental model of in vitro cataract (isolated lenses incubated in high-glucose culture broth); type: cell-based, rats; conditions: lenses treated with PGC 1M; 55.5 mM glucose
Experimental: Male albino Wistar rats having an average weight of 180 g have been used. After decapitation, both eye bulbs have been enucleated and the lenses have been removed from the back. The isolated lenses have been incubated at 37°C during 5 days in culture broth 199 containing 15% of foetal bovine serum (Laboratorio Gebco) and a 55.5 mM concentration of glucose. PGC has been added at a 1M concentration into the culture broth of only some lenses. The observations have been carried out at the 3rd and 5th day with the use of a stereo microscope and a Nikon camera with annular flash.
It can be observed that in the control lenses the opaqueness development begins after only 72 hours of incubation and is complete after 120 hours. In the lenses treated with PGC low levels of opaqueness can not be observed before 120 hours of treatment.

Male albino Wistar rats = assay: Cataract from tryptophan deficiency (in vivo experimental cataract model, slit lamp evaluation); conditions: rats on tryptophan-deficient diet, 30 days
Experimental: Said rats have been fed a synthetic diet devoid of tryptophan for a 30 days period and divided in three groups: the first animal group has been administered PGC subcutaneously at a dosage of 1 mg/kg in buffer solution, the second group has been administered a 10 mg/kg doses, whilst the animals of the third group have been injected only buffer solution.
The conditions of the various eye sections : conjunctiva, cornea, interior chamber, lens and vitreous humor have been evaluated at the slit lamp.
Especially the localisation and the degree of lens opaqueness have been scrutinized and documented by means of photographs.
It was possible to observe opaqueness predominantly at the level at the posterior capsule and there was also evidence of an initial sclerosis of the nucleus. No further alterations either at the level of the anterior segment or of the posterior segment have been observed.

male New-Zealand rabbits [3] = conditions: rabbit, in vivo

## O=C1CC[C@@H](C(=O)N[C@@H](CS)C(=O)O)N1 [PGC, L-pyroglutamyl-L-cysteine] ([pGlu]-Cys-OH)
Male New-Zealand rabbits [1]; PGC 400 mg/kg intraperitoneally, 24 hours after administration, urine and blood examination
  changes of the hematological or hematochemical constants or of the urine composition: not shown any changes
Male New-Zealand rabbits [1]; PGC intraperitoneally
  growth modification relative to control animals: No growth modification
Male New-Zealand rabbits [1]; PGC intraperitoneally (400 mg/kg), day 0 (baseline), average ± SD, n=10
  BODY WEIGHT INCREASE (KG) ON DAY 0: 1.45 ± 0.05 kg
Male New-Zealand rabbits [1]; PGC intraperitoneally (400 mg/kg), day 20, average ± SD, n=10
  BODY WEIGHT INCREASE (KG) ON DAY 20: 2.25 ± 0.08 kg
[2]
  effect on the formation of lens opaqueness: protective effect
  percent of opaque lenses as a whole in the treated animals relative to the controls: 60%
Rat lenses
  time before low levels of opaqueness can be observed: ≥ 120 h
Male albino Wistar rats; PGC 1 mg/kg subcutaneously
  lens opaqueness: perfectly transparent
Male albino Wistar rats; PGC 10 mg/kg subcutaneously
  lens opaqueness: perfectly transparent
Male New-Zealand rabbits [3]
  BODY WEIGHT INCREASE (KG) ON DAY 0: 1.60 ± 0.08 kg
  BODY WEIGHT INCREASE (KG) ON DAY 20: 2.34 ± 0.12 kg
  changes of the hematological or hematochemical constants or of the urine composition: not shown any changes
  growth modification relative to control animals: No growth modification
